Each block holds one compound with its values, some of them ahead of it. The source made the active and inactive calls. The rule behind the calls is not given here.
How the values were obtained:
[1] = test system: MIA PaCa-2; test: Antiproliferative activity against human MIAPaCa2 cells after 72 hrs by MTT assay; assay type: functional, cell-based; details: MIA PaCa-2, 72 h
[2] = test system: A549; test: Antiproliferative activity against human A549 cells after 72 hrs by MTT assay; assay type: functional, cell-based; details: A549, 72 h
[3] = test system: BJ; test: Antiproliferative activity against human BJ cells after 72 hrs by MTT assay; assay type: cell-based
[4] = test system: SK-OV-3; test: Synergistic antiproliferative activity against human SKOV3 cells assessed as combination index at 0.125 uM after 72 hrs in presence of 8 uM carboplatin by MTT assay; assay type: functional
[5] = test system: SK-OV-3; test: Synergistic antiproliferative activity against human SKOV3 cells assessed as combination index at 0.5 uM after 72 hrs in presence of 32 uM carboplatin by MTT assay; assay type: functional
[6] = test system: SK-OV-3; test: Cell cycle arrest in human SKOV3 cells at IC50 at 24 to 72 hrs by propidium iodide staining-based FACS analysis; assay type: functional
[7] = test system: MCF7; test: Antiproliferative activity against human MCF7 cells after 72 hrs by MTT assay; assay type: functional, cell-based; details: MCF7, 72 h
[8] = test system: SK-OV-3; test: Induction of apoptosis in human SKOV3 cells assessed as nuclear fragmentation at IC50 after 48 hrs by Hoechst 33342 staining-based fluorescence microscopic method; assay type: functional, cell-based
[9] = test system: SK-OV-3; test: Induction of apoptosis in human SKOV3 cells at IC50 by Annexin V-FITC/propidium iodide double-staining-based FACS analysis; assay type: functional, cell-based; details: TDE = time-dependent effect
[10] = test system: SK-OV-3; test: Induction of apoptosis in human SKOV3 cells assessed as decrease in Bcl-2 expression levels at IC50 after 72 hrs by Western blot analysis; assay type: functional, cell-based
[11] = test system: SK-OV-3; test: Induction of apoptosis in human SKOV3 cells assessed as increase in cleaved caspase-3 expression levels at IC50 after 72 hrs by Western blot analysis; assay type: functional, cell-based
[12] = test system: SK-OV-3; test: Induction of apoptosis in human SKOV3 cells assessed as increase in Bid expression levels at IC50 after 72 hrs by Western blot analysis; assay type: functional, cell-based
[13] = test system: SK-OV-3; test: Induction of apoptosis in human SKOV3 cells assessed as increase in cleaved PARP expression levels at IC50 after 72 hrs by Western blot analysis; assay type: functional, cell-based
[14] = test system: SK-OV-3; test: Synergistic antiproliferative activity against human SKOV3 cells assessed as combination index at 0.25 uM after 72 hrs in presence of 16 uM carboplatin by MTT assay; assay type: functional
[15] = test system: SK-OV-3; test: Antiproliferative activity against human SKOV3 cells after 72 hrs by MTT assay; assay type: functional, cell-based; details: SK-OV-3, 72 h
[16] = test system: SK-OV-3; test: Synergistic antiproliferative activity against human SKOV3 cells assessed as combination index at 1 uM after 72 hrs in presence of 64 uM carboplatin by MTT assay; assay type: functional
[17] = test system: SK-OV-3; test: Anticlonogenic activity against human SKOV3 cells assessed as reduction in colony formation efficiency treated for 24 hrs followed by incubation in drug free medium for 12 days by crystal violet staining-based assay; assay type: functional, cell-based
[18] = test system: SK-OV-3; test: Induction of apoptosis in human SKOV3 cells assessed as nuclear condensation at IC50 after 48 hrs by Hoechst 33342 staining-based fluorescence microscopic method; assay type: functional, cell-based
[19] = test system: SK-OV-3; test: Induction of apoptosis in human SKOV3 cells assessed as decrease in procaspase-8 expression levels at IC50 after 72 hrs by Western blot analysis; assay type: functional, cell-based
[20] = test system: SK-OV-3; test: Induction of apoptosis in human SKOV3 cells assessed as decrease in procaspase-9 expression levels at IC50 after 72 hrs by Western blot analysis; assay type: functional, cell-based
[21] = test system: SK-OV-3; test: Induction of apoptosis in human SKOV3 cells assessed as decrease in full-length PARP expression levels at IC50 after 72 hrs by Western blot analysis; assay type: functional, cell-based
[22] = test system: MDA-MB-231; test: Antiproliferative activity against human MDA-MB-231cells after 72 hrs by MTT assay; assay type: functional, cell-based; details: MDA-MB-231, 72 h
[23] = test system: SK-OV-3; test: Induction of apoptosis in human SKOV3 cells assessed as early apoptotic cells at IC50 after 72 by Annexin V-FITC/propidium iodide double-staining-based FACS analysis (reference value: 4.5%); assay type: functional
[24] = test system: SK-OV-3; test: Induction of apoptosis in human SKOV3 cells assessed as increase in cleaved caspase-8 expression levels at IC50 after 72 hrs by Western blot analysis; assay type: functional, cell-based
[25] = test system: SK-OV-3; test: Induction of apoptosis in human SKOV3 cells assessed as decrease in procaspase-3 expression levels at IC50 after 72 hrs by Western blot analysis; assay type: functional, cell-based
[26] = test system: SK-OV-3; test: Synergistic antiproliferative activity against human SKOV3 cells assessed as combination index at 2 uM after 72 hrs in presence of 128 uM carboplatin by MTT assay; assay type: functional
[27] = test system: SK-OV-3; test: Induction of apoptosis in human SKOV3 cells assessed as increase in cleaved caspase-9 expression levels at IC50 after 72 hrs by Western blot analysis; assay type: functional, cell-based
[28] = test system: HT-29; test: Antiproliferative activity against human HT-29 cells after 72 hrs by MTT assay; assay type: functional, cell-based; details: HT-29, 72 h
[29] = test system: SK-OV-3; test: Induction of apoptosis in human SKOV3 cells assessed as formation of apoptotic bodies at IC50 after 48 hrs by Hoechst 33342 staining-based fluorescence microscopic method; assay type: functional, cell-based
[30] = test system: SK-OV-3; test: Induction of apoptosis in human SKOV3 cells assessed as increase in Bax expression levels at IC50 after 72 hrs by Western blot analysis; assay type: functional, cell-based
[31] = test system: SK-OV-3; test: Induction of apoptosis in human SKOV3 cells assessed as cell shrinkage at IC50 after 48 hrs by Hoechst 33342 staining-based fluorescence microscopic method; assay type: functional

Compound: CCOC(=O)N[C@]1(C)CC[C@]2(C)CC[C@]3(C)C4=CC(=O)c5c(cc(O)c(O)c5C)[C@]4(C)CC[C@@]3(C)[C@@H]2C1
IC50 [1]: > 10 µM
IC50 [2]: > 10 µM

Compound: CC(=O)Oc1cc2c(c(C)c1OC(C)=O)CC=C1[C@@]2(C)CC[C@@]2(C)[C@@H]3C[C@](C)(N=C=O)CC[C@]3(C)CC[C@]12C
IC50 [1]: 1.41 µM
IC50 [2]: 2.89 µM

Compound: COC(=O)N[C@]1(C)CC[C@]2(C)CC[C@]3(C)C4=CC(=O)c5c(cc(OC)c(O)c5C)[C@]4(C)CC[C@@]3(C)[C@@H]2C1
IC50 [1]: > 10 µM
IC50 [2]: > 10 µM

Compound: Cc1c(O)c(O)cc2c1CC=C1[C@@]2(C)CC[C@@]2(C)[C@@H]3C[C@](C)(C(=O)O)CC[C@]3(C)CC[C@]12C [DIHYDROCELASTROL]
IC50 [1]: 0.72 µM
IC50 [2]: 3.15 µM

Compound: CC(=O)Oc1cc2c(c(C)c1OC(C)=O)C(=O)C=C1C2(C)CC[C@@]2(C)[C@@H]3C[C@](C)(N=C=O)CC[C@]3(C)CC[C@]12C (single isomer, unassigned)
IC50 [1]: > 10 µM
IC50 [2]: > 10 µM

Compound: CCOC(=O)N[C@]1(C)CC[C@]2(C)CC[C@]3(C)C4=CC(=O)c5c(cc(OC)c(OC)c5C)[C@]4(C)CC[C@@]3(C)[C@@H]2C1
IC50 [1]: > 10 µM
IC50 [2]: > 10 µM

Compound: CC1=C(O)C(=O)C=C2C1=CC=C1[C@@]2(C)CC[C@@]2(C)[C@@H]3C[C@](C)(C(=O)O)CC[C@]3(C)CC[C@]12C [CELASTROL]
IC50 [3]: 2.74 µM
IC50 [7]: 1.35 µM
IC50 [15]: 1.16 µM
IC50 [1]: 0.46 µM
IC50 [22]: 1.32 µM
IC50 [28]: 1.28 µM
IC50 [2]: 1.56 µM

Compound: COC(=O)N[C@]1(C)CC[C@]2(C)CC[C@]3(C)C4=CC(=O)c5c(cc(O)c(O)c5C)[C@]4(C)CC[C@@]3(C)[C@@H]2C1
IC50 [3]: > 30 µM
IC50 [15]: 7.98 µM
IC50 [1]: 6.5 µM
IC50 [2]: 6.53 µM

Compound: CC(=O)Oc1cc2c(c(C)c1OC(C)=O)C(=O)C=C1C2(C)CC[C@@]2(C)[C@@H]3C[C@](C)(C(=O)O)CC[C@]3(C)CC[C@]12C (single isomer, unassigned)
IC50 [1]: > 10 µM
IC50 [2]: > 10 µM

The next lines start with results.

IC50 [1]: 0.4 µM
IC50 [2]: 1 µM
Compound: CCCOC(=O)N[C@]1(C)CC[C@]2(C)CC[C@]3(C)C4=CC=C5C(=CC(=O)C(O)=C5C)[C@]4(C)CC[C@@]3(C)[C@@H]2C1

IC50 [1]: 0.38 µM
IC50 [2]: 2.77 µM
Compound: CC(=O)Oc1cc2c(c(C)c1OC(C)=O)C(=O)C=C1[C@@]2(C)CC[C@@]2(C)[C@@H]3C[C@](C)(C=O)CC[C@]3(C)CC[C@]12C

IC50 [1]: 0.53 µM
IC50 [2]: 2.47 µM
Compound: CC1=C(O)C(=O)C=C2C1=CC=C1[C@@]2(C)CC[C@@]2(C)[C@@H]3C[C@](C)(N=C=O)CC[C@]3(C)CC[C@]12C

IC50 [1]: 0.8 µM
IC50 [2]: 2.23 µM
Compound: CC1=C(O)C(=O)C=C2C1=CC=C1[C@@]2(C)CC[C@@]2(C)[C@@H]3C[C@](C)(NC(=O)OCC(C)C)CC[C@]3(C)CC[C@]12C

IC50 [1]: 0.78 µM
IC50 [2]: 1.93 µM
Compound: CCOC(=O)N[C@]1(C)CC[C@]2(C)CC[C@]3(C)C4=CC=C5C(=CC(=O)C(O)=C5C)[C@]4(C)CC[C@@]3(C)[C@@H]2C1

IC50 [1]: 1 µM
IC50 [2]: 1.58 µM
Compound: CC1=C(O)C(=O)C=C2C1=CC=C1[C@@]2(C)CC[C@@]2(C)[C@@H]3C[C@](C)(NC(=O)OCC(C)(C)CO)CC[C@]3(C)CC[C@]12C

IC50 [7]: 1.68 µM
IC50 [15]: 0.54 µM
IC50 [1]: 0.33 µM
IC50 [22]: 1.35 µM
IC50 [28]: 1.54 µM
IC50 [2]: 0.88 µM
Compound: COC(=O)N[C@]1(C)CC[C@]2(C)CC[C@]3(C)C4=CC(=O)c5c(cc(OC(C)=O)c(OC(C)=O)c5C)[C@]4(C)CC[C@@]3(C)[C@@H]2C1
IC50 [3]: 3.68 µM
CI [4]: 1.112
CI [5]: 0.6273
Activity [6]: inactive
Activity [8]: Active
Activity [9]: Tde
Activity [10]: inactive
Activity [11]: Active
Activity [12]: inactive
Activity [13]: Active
CI [14]: 0.9285
CI [16]: 0.7863
Activity [17]: Dose-dependent effect
Activity [18]: Active
Activity [19]: Active
Activity [20]: inactive
Activity [21]: Active
Activity [23]: 29.9%
Activity [24]: Active
Activity [25]: Active
CI [26]: 1.076
Activity [27]: inactive
Activity [29]: Active
Activity [30]: inactive
Activity [31]: Active

IC50 [1]: 0.58 µM
IC50 [2]: 1.74 µM
Compound: COC(=O)N[C@]1(C)CC[C@]2(C)CC[C@]3(C)C4=CC=C5C(=CC(=O)C(O)=C5C)[C@]4(C)CC[C@@]3(C)[C@@H]2C1

IC50 [7]: 0.59 µM
IC50 [15]: 0.45 µM
IC50 [1]: 0.32 µM
IC50 [22]: 0.52 µM
IC50 [28]: 1.02 µM
IC50 [2]: 1.05 µM
Compound: CCCCCOC(=O)N[C@]1(C)CC[C@]2(C)CC[C@]3(C)C4=CC=C5C(=CC(=O)C(O)=C5C)[C@]4(C)CC[C@@]3(C)[C@@H]2C1
IC50 [3]: 0.88 µM

IC50 [1]: 0.56 µM
IC50 [2]: 2.21 µM
Compound: CC(=O)Oc1cc2c(c(C)c1OC(C)=O)CC=C1[C@@]2(C)CC[C@@]2(C)[C@@H]3C[C@](C)(C(=O)O)CC[C@]3(C)CC[C@]12C

IC50 [1]: 0.48 µM
IC50 [2]: 1.87 µM
Compound: CC(=O)Oc1cc2c(c(C)c1OC(C)=O)C(=O)C=C1[C@@]2(C)CC[C@@]2(C)[C@@H]3C[C@](C)(CO)CC[C@]3(C)CC[C@]12C

IC50 [1]: 0.36 µM
IC50 [2]: 1.27 µM
Compound: CC(=O)Oc1cc2c(c(C)c1OC(C)=O)C(=O)C=C1[C@@]2(C)CC[C@@]2(C)[C@@H]3C[C@](C)(C(N)=O)CC[C@]3(C)CC[C@]12C

Reference: ChEMBL document CHEMBL4130422, “Design, synthesis and biological evaluation of novel C-29 carbamate celastrol derivatives as potent and selective cytotoxic compounds” (Eur J Med Chem, 2017)
